# Source: ChEMBL document CHEMBL1142033, “Synthesis of isonicotinic acid N'-arylidene-N-[2-oxo-2-(4-aryl-piperazin-1-yl)-ethyl]-hydrazides as antituberculosis agents” (2005)
# Experiments:
# [1] = system: Mycobacterium tuberculosis; test: Minimum inhibitory concentration against Mycobacterium tuberculosis H37Rv ATCC 27294; format: functional
# [2] = system: Mycobacterium tuberculosis; test: Minimum inhibitory concentration against sensitive Mycobacterium tuberculosis clinical isolates; N=9; format: functional
# [3] = system: Mycobacterium tuberculosis; test: Minimum inhibitory concentration against sensitive Mycobacterium tuberculosis clinical isolates; N=9; range=8-16; format: functional
# [4] = system: Mycobacterium tuberculosis; test: Minimum inhibitory concentration against sensitive Mycobacterium tuberculosis clinical isolates; N=9; range=2-4; format: functional
# [5] = system: Mycobacterium tuberculosis; test: Minimum inhibitory concentration against sensitive Mycobacterium tuberculosis clinical isolates; N=9; range=4-8; format: functional
# [6] = system: Mycobacterium tuberculosis; test: Minimum inhibitory concentration against sensitive Mycobacterium tuberculosis clinical isolates; N=9; range=1-4; format: functional
# [7] = system: Mycobacterium tuberculosis; test: Minimum inhibitory concentration against sensitive Mycobacterium tuberculosis clinical isolates; N=9; Range = 0.12-0.25; format: functional
# [8] = system: Mycobacterium tuberculosis; test: microbe, parasite or virus in culture
# Description: Minimum inhibitory concentration against sensitive Mycobacterium tuberculosis clinical isolates; N=9; Range=0.03-0.5
Compound,MIC [1] [µg/mL],MIC [2] [µg/mL],other results
O=C(CN(/N=C/c1ccccc1Cl)C(=O)c1ccncc1)N1CCN(c2ccc(F)cc2)CC1,> 16,> 16,
O=C(CN(/N=C/c1cccc(Cl)c1)C(=O)c1ccncc1)N1CCN(c2ccc([N+](=O)[O-])cc2)CC1,> 16,> 16,
O=C(CN(/N=C/c1ccc(Cl)cc1Cl)C(=O)c1ccncc1)N1CCN(c2ccc(Cl)cc2)CC1,8,8,
O=C(CN(/N=C/c1ccc(Cl)cc1Cl)C(=O)c1ccncc1)N1CCN(c2ccc(F)cc2)CC1,> 16,,MIC [3]: 16 µg/mL
O=C(CN(/N=C/c1cccc(Cl)c1)C(=O)c1ccncc1)N1CCN(c2ccc(Cl)cc2)CC1,> 16,> 16,
COc1ccccc1N1CCN(C(=O)CN(/N=C/c2ccc(Cl)cc2)C(=O)c2ccncc2)CC1,> 16,> 16,
COc1ccccc1N1CCN(C(=O)CN(/N=C/c2ccccc2Cl)C(=O)c2ccncc2)CC1,> 16,> 16,
O=C(CN(/N=C/c1ccc(Cl)cc1)C(=O)c1ccncc1)N1CCN(c2ccc(Cl)cc2)CC1,> 16,> 16,
O=C(CN(/N=C/c1ccc(Cl)cc1Cl)C(=O)c1ccncc1)N1CCN(c2cccc(C(F)(F)F)c2)CC1,> 16,> 16,
O=C(CN(/N=C/c1ccccc1Cl)C(=O)c1ccncc1)N1CCN(c2ccccc2)CC1,> 16,,MIC [3]: 16 µg/mL
O=C(CN(/N=C/c1ccccc1Cl)C(=O)c1ccncc1)N1CCN(c2ccc([N+](=O)[O-])cc2)CC1,> 16,> 16,
Cc1cccc(N2CCN(C(=O)CN(/N=C/c3ccc(Cl)cc3Cl)C(=O)c3ccncc3)CC2)c1,> 16,> 16,
O=C(CN(/N=C/c1ccccc1Cl)C(=O)c1ccncc1)N1CCN(c2cccc(Cl)c2)CC1,> 16,> 16,
Cc1cccc(N2CCN(C(=O)CN(/N=C/c3ccccc3Cl)C(=O)c3ccncc3)CC2)c1,> 16,> 16,
O=C(CN(/N=C/c1ccc(Cl)cc1)C(=O)c1ccncc1)N1CCN(c2ccc(F)cc2)CC1,> 16,> 16,
COc1ccccc1N1CCN(C(=O)CN(/N=C/c2cccc(Cl)c2)C(=O)c2ccncc2)CC1,> 16,> 16,
O=C(CN(/N=C/c1ccccc1Cl)C(=O)c1ccncc1)N1CCN(c2cccc(C(F)(F)F)c2)CC1,> 16,> 16,

Compound,MIC [1] [µg/mL],MIC [2] [µg/mL],other results
O=C(CN(/N=C/c1ccc(Cl)cc1Cl)C(=O)c1ccncc1)N1CCN(c2cccc(Cl)c2)CC1,> 16,> 16,
O=C(CN(/N=C/c1cccc(Cl)c1)C(=O)c1ccncc1)N1CCN(c2ccc(F)cc2)CC1,> 16,> 16,
O=C(CN(/N=C/c1cccc(Cl)c1)C(=O)c1ccncc1)N1CCN(c2cccc(Cl)c2)CC1,> 16,> 16,
O=C(CN(/N=C/c1ccc(Cl)cc1)C(=O)c1ccncc1)N1CCN(c2ccc([N+](=O)[O-])cc2)CC1,> 16,> 16,
COc1ccccc1N1CCN(C(=O)CN(/N=C/c2ccc(Cl)cc2Cl)C(=O)c2ccncc2)CC1,> 16,> 16,
O=C(CN(/N=C/c1ccccc1Cl)C(=O)c1ccncc1)N1CCN(c2ccc(Cl)cc2)CC1,> 16,> 16,
O=C(CN(/N=C/c1ccc(Cl)cc1Cl)C(=O)c1ccncc1)N1CCN(Cc2ccc3c(c2)OCO3)CC1,,0.5,Range of MIC [1]: 1 µg/mL
O=C(CN(/N=C/c1ccc(Cl)cc1Cl)C(=O)c1ccncc1)N1CCN(c2ccc([N+](=O)[O-])cc2)CC1,> 16,> 16,
O=C(CN(/N=C/c1cccc(Cl)c1)C(=O)c1ccncc1)N1CCN(Cc2ccc3c(c2)OCO3)CC1,4,,MIC [4]: 4 µg/mL
O=C(CN(/N=C/c1ccc(Cl)cc1Cl)C(=O)c1ccncc1)N1CCN(c2ccccc2)CC1,> 16,> 16,
O=C(CN(/N=C/c1ccccc1Cl)C(=O)c1ccncc1)N1CCN(Cc2ccc3c(c2)OCO3)CC1,4,,MIC [5]: 8 µg/mL
Cc1cccc(N2CCN(C(=O)CN(/N=C/c3cccc(Cl)c3)C(=O)c3ccncc3)CC2)c1,> 16,> 16,
O=C(CN(/N=C/c1ccc(Cl)cc1)C(=O)c1ccncc1)N1CCN(Cc2ccc3c(c2)OCO3)CC1,2,,MIC [6]: 4 µg/mL
O=C(CN(/N=C/c1ccccc1Cl)C(=O)c1ccncc1)N1CCN(c2cccc(Cl)c2Cl)CC1,> 16,> 16,
O=C(CN(/N=C/c1cccc(Cl)c1)C(=O)c1ccncc1)N1CCN(c2ccccc2)CC1,> 16,> 16,
NNC(=O)c1ccncc1 [ISONIAZID],0.25,,MIC [7]: 0.25 µg/mL
CO[C@H]1/C=C/O[C@@]2(C)Oc3c(C)c(O)c4c(O)c(c(/C=N/N5CCN(C)CC5)c(O)c4c3C2=O)NC(=O)/C(C)=C\C=C\[C@H](C)[C@H](O)[C@@H](C)[C@@H](O)[C@@H](C)[C@H](OC(C)=O)[C@@H]1C [RIFAMPIN],0.125,,MIC [8]: 0.5 µg/mL
